Data: US20180162862A1 (President and Fellows of Harvard College, priority 2015, published 2018)
In brackets after ≈: the same amount, converted by molar mass.

How the values were obtained:
Type in all cases: cell-based
[1] = test system: S. aureus ATCC 43300; assay: MIC test according to CLSI M7-A9, S. aureus ATCC 43300; settings: Staphylococcus aureus, ATCC43300; CLSI M7-A9, CAMHB, 24 h (Table 3); read-out: S. aureus ATCC 43300 MIC
Method: (§1) MIC Test (S. aureus ATCC 29213, S. aureus ATCC 43300 and S. aureus Newman)
(§2) Susceptibility testing of S. aureus ATCC 29213, ATCC 43300 and Newman was performed according to Clinical Laboratory Standard Institute (CLSI) guidelines M7-A9. Test articles were stored at room temperature prior to use, then dissolved in filtered sterile DMSO. Stock DMSO solutions were diluted further in cation-adjusted Mueller Hinton broth (CAMHB) to provide appropriate test concentrations. Cultures of S. aureus (ATCC 29213, ATCC 43300 or Newman) were added in accordance with CLSI guidelines and plates incubated at 37° C. in air for 24 h. Endpoints were determined visually (and by spectrophotometer at 600 nm) and the minimum inhibitory concentration (MIC) defined as the lowest concentration of test articles resulting in complete inhibition of visible bacterial growth. Results are detailed in Table 2 (S. aureus ATCC 29213 and ATCC 43300) and Table 3 (S. aureus ATCC 29213, ATCC 43300 and Newman).

[2] = test system: S. aureus Newman; assay: MIC test according to CLSI M7-A9, S. aureus Newman; settings: Staphylococcus aureus, CLSI M7-A9, CAMHB, 24 h (Table 3), read-out: S. aureus ATCC Newman MIC
Method: as §1, §2

[3] = test system: S. aureus ATCC 29213; assay: MIC test according to CLSI M7-A9, S. aureus ATCC 29213; settings: Staphylococcus aureus, ATCC29213; CLSI M7-A9, CAMHB, 24 h (Table 3); read-out: S. aureus ATCC 29213 MIC
Method: as §1, §2

## CC(C)(O)CCNc1nc(-c2ccc(C(C)(C)C)cc2)nc2cc(=O)[nH]n12 [Example 80, 2-(4-tert-butylphenyl)-4-[(3-hydroxy-3-methylbutyl)amino]-6H,7H-pyrazolo[1,5-a][1,3,5]triazin-7-one]
[1]
  MIC: 64 µg/mL (≈ 173 µM)
[2]
  MIC: 32 µg/mL (≈ 86.6 µM)
[3]
  MIC: 32 µg/mL (≈ 86.6 µM)

## CN(C)CCCNc1nc(-c2ccc(C(C)(C)C)cc2)nc2cc(=O)[nH]n12 [Example 75, 2-(4-tert-butylphenyl)-4-{[3-(dimethylamino)propyl]amino}-6H,7H-pyrazolo[1,5-a][1,3,5]triazin-7-one]
[1]
  MIC: 32 µg/mL (≈ 86.8 µM)
[2]
  MIC: 32 µg/mL (≈ 86.8 µM)
[3]
  MIC: 32 µg/mL (≈ 86.8 µM)

## CC(C)(C)c1ccc(-c2nc(NCCN3CCOCC3)n3[nH]c(=O)cc3n2)cc1 [Example 81, 2-(4-tert-butylphenyl)-4-{[2-(morpholin-4-yl)ethyl]amino}-6H,7H-pyrazolo[1,5-a][1,3,5]triazin-7-one]
[1]
  MIC: 128 µg/mL (≈ 323 µM)
[2]
  MIC: 128 µg/mL (≈ 323 µM)
[3]
  MIC: 128 µg/mL (≈ 323 µM)

## CC(C)(C)c1ccc(-c2nc(NCCN3CCCCC3)n3[nH]c(=O)cc3n2)cc1 [Example 82, 2-(4-tert-butylphenyl)-4-{[2-(piperidin-1-yl)ethyl]amino}-6H,7H-pyrazolo[1,5-a][1,3,5]triazin-7-one]
[1]
  MIC: 64 µg/mL (≈ 162 µM)
[2]
  MIC: 32 µg/mL (≈ 81.1 µM)
[3]
  MIC: 64 µg/mL (≈ 162 µM)

## Cc1oc(C(C)(C)C)cc1-c1nc(NCCCO)n2[nH]c(=O)cc2n1 [Example 93, 2-(5-tert-butyl-2-methylfuran-3-yl)-4-[(3-hydroxypropyl)amino]-6H,7H-pyrazolo[1,5-a][1,3,5]triazin-7-one]
[1]
  MIC: 32 µg/mL (≈ 92.6 µM)
[2]
  MIC: 16 µg/mL (≈ 46.3 µM)
[3]
  MIC: 32 µg/mL (≈ 92.6 µM)

## Cc1cc(OCCCN(CCO)c2nc(-c3ccc(C(C)(C)C)cc3)nc3cc(=O)[nH]n23)ccc1Cl [Example 85]
[1]
  MIC: 32 µg/mL (≈ 62.7 µM)
[2]
  MIC: 4 µg/mL (≈ 7.84 µM)
[3]
  MIC: 32 µg/mL (≈ 62.7 µM)

## CCCCCCCCCCCCCCCCNc1nc(-c2ccc(C(C)(C)C)cc2)nc2cc(=O)[nH]n12 [Example 73, 2-(4-tert-butylphenyl)-4-(hexadecylamino)-6H,7H-pyrazolo[1,5-a][1,3,5]triazin-7-one]
[1]
  MIC: > 32 µg/mL
[2]
  MIC: > 32 µg/mL
[3]
  MIC: > 32 µg/mL

## CC(C)(C)c1ccc(-c2nc(NCCCNCc3ccccc3)n3[nH]c(=O)cc3n2)cc1 [Example 74, 4-{[3-(benzylamino)propyl]amino}-2-(4-tert-butylphenyl)-6H,7H-pyrazolo[1,5-a][1,3,5]triazin-7-one]
[1]
  MIC: 16 µg/mL (≈ 37.2 µM)
[2]
  MIC: 16 µg/mL (≈ 37.2 µM)
[3]
  MIC: 16 µg/mL (≈ 37.2 µM)

## CC(=O)c1ccc(-c2nc(NCCCOc3ccc(Cl)c(C)c3)n3[nH]c(=O)cc3n2)cc1 [Example 104, 2-(4-acetylphenyl)-4-{[3-(4-chloro-3-methylphenoxy)propyl]amino}-6H,7H-pyrazolo[1,5-a][1,3,5]triazin-7-one]
[1]
  MIC: 32 µg/mL (≈ 70.8 µM)
[2]
  MIC: 32 µg/mL (≈ 70.8 µM)
[3]
  MIC: 32 µg/mL (≈ 70.8 µM)

## CC(C)(C)c1ccc(-c2nc(NCCCO)n3[nH]c(=O)c(Cc4ccccc4)c3n2)cc1 [Example 107, 8-benzyl-2-(4-tert-butylphenyl)-4-[(3-hydroxypropyl)amino]-6H,7H-pyrazolo[1,5-a][1,3,5]triazin-7-one]
[1]
  MIC: > 128 µg/mL
[2]
  MIC: 64 µg/mL (≈ 148 µM)
[3]
  MIC: > 128 µg/mL

## CN(CCNc1nc(-c2ccc(C(C)(C)C)cc2)nc2cc(=O)[nH]n12)C1CCCCC1 [Example 83, 2-(4-tert-butylphenyl)-4-({2-[cyclohexyl(methyl)amino]ethyl}amino)-6H,7H-pyrazolo[1,5-a][1,3,5]triazin-7-one]
[1]
  MIC: 32 µg/mL (≈ 75.7 µM)
[2]
  MIC: 32 µg/mL (≈ 75.7 µM)
[3]
  MIC: 32 µg/mL (≈ 75.7 µM)

## Cc1oc(C(C)(C)C)cc1-c1nc(NCCCNC2Cc3ccccc3C2)n2[nH]c(=O)cc2n1 [Example 94]
[1]
  MIC: 16 µg/mL (≈ 34.7 µM)
[2]
  MIC: 16 µg/mL (≈ 34.7 µM)
[3]
  MIC: 16 µg/mL (≈ 34.7 µM)

## O=c1[nH]n2c(NCCCNC3Cc4ccccc4C3)nc(C34CC5CC(CC(C5)C3)C4)nc2c1Cc1ccccc1 [Example 125, 2-(adamantan-1-yl)-8-benzyl-4-({3-[(2,3-dihydro-1H-inden-2-yl)amino]propyl}amino)-6H,7H-pyrazolo[1,5-a][1,3,5]triazin-7-one]
[2]
  MIC: 1 µg/mL (≈ 1.82 µM)
[3]
  MIC: 2 µg/mL (≈ 3.64 µM)

## CC(C)(C)c1ccc(-c2nc(NCC(=O)NC3Cc4ccccc4C3)n3[nH]c(=O)cc3n2)cc1 [Example 88, 2-{[2-(4-tert-butylphenyl)-7-oxo-6H,7H-pyrazolo[1,5-a][1,3,5]triazin-4-yl]amino}-N-(2,3-dihydro-1H-inden-2-yl)acetamide]
[2]
  MIC: 128 µg/mL (≈ 280 µM)
[3]
  MIC: > 128 µg/mL

## O=c1[nH]n2c(NCCCN3CCc4ccccc4C3)nc(C34CC5CC(CC(C5)C3)C4)nc2c1Cc1ccccc1 [Example 124, 2-(adamantan-1-yl)-8-benzyl-4-{[3-(1,2,3,4-tetrahydroisoquinolin-2-yl)propyl]amino}-6H,7H-pyrazolo[1,5-a][1,3,5]triazin-7-one]
[2]
  MIC: 2 µg/mL (≈ 3.64 µM)
[3]
  MIC: 128 µg/mL (≈ 233 µM)

## CC(C)(C)c1ccc(-c2nc(NCC(F)CNC3CCCCC3)n3[nH]c(=O)cc3n2)cc1 (stereo not shown) [Example 87, 2-(4-tert-butylphenyl)-4-{[3-(cyclohexylamino)-2-fluoropropyl]amino}-6H,7H-pyrazolo[1,5-a][1,3,5]triazin-7-one]
[1]
  MIC: 32 µg/mL (≈ 72.6 µM)
[2]
  MIC: 32 µg/mL (≈ 72.6 µM)
[3]
  MIC: 32 µg/mL (≈ 72.6 µM)

## CC(C)(C)c1ccc(-c2nc(NCCCc3ccccc3)n3[nH]c(=O)c(Cc4c[nH]cn4)c3n2)cc1 [Example 111, 2-(4-tert-butylphenyl)-8-(1H-imidazol-4-ylmethyl)-4-[(3-phenylpropyl)amino]-6H,7H-pyrazolo[1,5-a][1,3,5]triazin-7-one]
[2]
  MIC: 2 µg/mL (≈ 4.15 µM)
[3]
  MIC: 4 µg/mL (≈ 8.31 µM)

## Cc1ccc(Cc2c(=O)[nH]n3c(NCCCN(C)C)nc(-c4ccc(C(C)(C)C)cc4)nc23)cn1 [Example 114, 2-(4-tert-butylphenyl)-4-{[3-(dimethylamino)propyl]amino}-8-[(6-methylpyridin-3-yl)methyl]-6H,7H-pyrazolo[1,5-a][1,3,5]triazin-7-one]
[2]
  MIC: 64 µg/mL (≈ 135 µM)
[3]
  MIC: 64 µg/mL (≈ 135 µM)

## CCCCNc1nc(C(C)(C)C)nc2cc(=O)[nH]n12 [Example 96, 2-tert-butyl-4-(butylamino)-6H,7H-pyrazolo[1,5-a][1,3,5]triazin-7-one]
[2]
  MIC: 32 µg/mL (≈ 122 µM)
[3]
  MIC: 128 µg/mL (≈ 486 µM)

## O=c1cc2nc(C34CC5CC(CC(C5)C3)C4)[nH]c(=S)n2[nH]1 [Example 99, 2-(adamantan-1-yl)-4-sulfanylidene-3H,4H,6H,7H-pyrazolo[1,5-a][1,3,5]triazin-7-one]
[1]
  MIC: 64 µg/mL (≈ 212 µM)
[2]
  MIC: 32 µg/mL (≈ 106 µM)
[3]
  MIC: 64 µg/mL (≈ 212 µM)

## Cc1ccc(Cc2c(=O)[nH]n3c(NCCCO)nc(-c4ccc(C(C)(C)C)cc4)nc23)cn1 [Example 113, 2-(4-tert-butylphenyl)-4-[(3-hydroxypropyl)amino]-8-[(6-methylpyridin-3-yl)methyl]-6H,7H-pyrazolo[1,5-a][1,3,5]triazin-7-one]
[2]
  MIC: 32 µg/mL (≈ 71.7 µM)
[3]
  MIC: 32 µg/mL (≈ 71.7 µM)

## CC(C)(O)c1ccc(-c2nc(NCCCNC3Cc4ccccc4C3)n3[nH]c(=O)cc3n2)cc1 [Example 105, 4-({3-[(2,3-dihydro-1H-inden-2-yl)amino]propyl}amino)-2-[4-(2-hydroxypropan-2-yl)phenyl]-6H,7H-pyrazolo[1,5-a][1,3,5]triazin-7-one]
[1]
  MIC: 16 µg/mL (≈ 34.9 µM)
[2]
  MIC: 32 µg/mL (≈ 69.8 µM)
[3]
  MIC: 32 µg/mL (≈ 69.8 µM)

## Cc1oc(C(C)(C)C)cc1-c1nc2cc(=O)[nH]n2c(=S)[nH]1 [Example 92, 2-(5-tert-butyl-2-methylfuran-3-yl)-4-sulfanylidene-3H,4H,6H,7H-pyrazolo[1,5-a][1,3,5]triazin-7-one]
[1]
  MIC: 16 µg/mL (≈ 52.6 µM)
[2]
  MIC: 8 µg/mL (≈ 26.3 µM)
[3]
  MIC: 32 µg/mL (≈ 105 µM)

## CN(CCCNc1nc(-c2ccc(C(C)(C)C)cc2)nc2cc(=O)[nH]n12)Cc1ccccc1 [Example 98, 4-({3-[benzyl(methyl)amino]propyl}amino)-2-(4-tert-butylphenyl)-6H,7H-pyrazolo[1,5-a][1,3,5]triazin-7-one]
[2]
  MIC: 32 µg/mL (≈ 72 µM)
[3]
  MIC: 32 µg/mL (≈ 72 µM)

## O=c1cc2nc(C34CC5CC(CC(C5)C3)C4)nc(NCCCO)n2[nH]1 [Example 100, 2-(adamantan-1-yl)-4-[(3-hydroxypropyl)amino]-6H,7H-pyrazolo[1,5-a][1,3,5]triazin-7-one]
[1]
  MIC: 32 µg/mL (≈ 93.2 µM)
[2]
  MIC: 16 µg/mL (≈ 46.6 µM)
[3]
  MIC: 32 µg/mL (≈ 93.2 µM)

## O=c1[nH]n2c(NCCCO)nc(C34CC5CC(CC(C5)C3)C4)nc2c1Cc1ccccc1 [Example 122, 2-(adamantan-1-yl)-8-benzyl-4-[(3-hydroxypropyl)amino]-6H,7H-pyrazolo[1,5-a][1,3,5]triazin-7-one]
[2]
  MIC: 8 µg/mL (≈ 18.5 µM)
[3]
  MIC: 8 µg/mL (≈ 18.5 µM)

## CC(C)(C)c1ccc(-c2nc(NCCCN3CCCc4ccccc43)n3[nH]c(=O)cc3n2)cc1 [Example 76, 2-(4-tert-butylphenyl)-4-{[3-(1,2,3,4-tetrahydroquinolin-1-yl)propyl]amino}-6H,7H-pyrazolo[1,5-a][1,3,5]triazin-7-one]
[2]
  MIC: 4 µg/mL (≈ 8.76 µM)
[3]
  MIC: 4 µg/mL (≈ 8.76 µM)

## Cc1cc(OCCCN(CCCN(C)C)c2nc(-c3ccc(C(C)(C)C)cc3)nc3cc(=O)[nH]n23)ccc1Cl [Example 86, 2-(4-tert-butylphenyl)-4-{[3-(4-chloro-3-methylphenoxy)propyl][3-(dimethylamino)propyl]amino}-6H,7H-pyrazolo[1,5-a][1,3,5]triazin-7-one]
[2]
  MIC: 1 µg/mL (≈ 1.81 µM)
[3]
  MIC: 2 µg/mL (≈ 3.63 µM)
